Laboratory results as given in patent publication US9938269B2, “Inhibitor compounds of phosphodiesterase type 10A” (ABBVIE INC., priority 2011, dated 2018).
pIC50: −log10 of the molar value. Counter-ions that a name gives are not always drawn.

Legend:
PDE10A (human) = target: T1, PDE10A (human) (Homo sapiens, UniProt Q9Y233); assay: Measurement of PDE activity (HTRF cAMP kit), human PDE10A; type: biochemical; details: PDE enzymatic reaction, substrate 20 nM for PDE10, 60 minutes at 29 C
T1 construct: purchased BPS Bioscience
Procedure, shortened: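 HTRF detection of cAMP left after hydrolysis, expressed as percent of uninhibited control to derive IC50. Reaction: serially diluted inhibitor mixed with recombinant enzyme, started with 20 nM cAMP, 60 min at 29 °C in Tris-HCl pH 7.5 buffer containing MgCl2 and BSA.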

[1] = Determination of the microsomal half-life, human liver microsomes; details: human, liver microsomes, pH 7.4
[2] = Determination of the microsomal half-life, rat liver microsomes; details: rat, liver microsomes, pH 7.4

T1 sequence (Q9Y233 whole entry): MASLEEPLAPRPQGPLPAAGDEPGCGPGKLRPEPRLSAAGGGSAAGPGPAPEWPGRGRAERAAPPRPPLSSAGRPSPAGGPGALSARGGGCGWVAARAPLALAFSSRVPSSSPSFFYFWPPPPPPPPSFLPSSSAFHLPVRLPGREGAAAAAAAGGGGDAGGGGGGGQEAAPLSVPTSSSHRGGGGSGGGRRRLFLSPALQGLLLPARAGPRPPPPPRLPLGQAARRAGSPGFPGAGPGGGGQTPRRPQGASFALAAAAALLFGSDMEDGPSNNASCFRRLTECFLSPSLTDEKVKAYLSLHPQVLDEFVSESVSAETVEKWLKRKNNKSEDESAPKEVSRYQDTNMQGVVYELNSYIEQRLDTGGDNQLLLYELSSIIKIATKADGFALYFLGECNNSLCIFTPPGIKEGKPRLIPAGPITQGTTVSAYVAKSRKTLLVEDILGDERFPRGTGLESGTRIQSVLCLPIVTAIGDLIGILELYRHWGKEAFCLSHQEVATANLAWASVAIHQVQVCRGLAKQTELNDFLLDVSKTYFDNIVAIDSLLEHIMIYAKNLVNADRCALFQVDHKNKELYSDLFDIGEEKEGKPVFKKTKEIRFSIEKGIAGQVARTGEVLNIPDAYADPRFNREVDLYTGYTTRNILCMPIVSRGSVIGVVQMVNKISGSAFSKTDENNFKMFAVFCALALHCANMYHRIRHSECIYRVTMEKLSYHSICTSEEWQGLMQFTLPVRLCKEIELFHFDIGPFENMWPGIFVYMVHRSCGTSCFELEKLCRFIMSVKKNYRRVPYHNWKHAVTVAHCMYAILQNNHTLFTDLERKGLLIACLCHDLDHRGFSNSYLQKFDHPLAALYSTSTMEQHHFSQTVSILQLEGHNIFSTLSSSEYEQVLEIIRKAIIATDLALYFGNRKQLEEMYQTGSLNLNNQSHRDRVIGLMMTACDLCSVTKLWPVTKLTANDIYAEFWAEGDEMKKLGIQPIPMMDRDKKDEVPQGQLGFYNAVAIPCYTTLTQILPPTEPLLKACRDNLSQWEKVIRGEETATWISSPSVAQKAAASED

| SMILES | pIC50 (PDE10A (human)) | microsomal CLint at 0.5 μM [1] [µL/min/mg] | microsomal CLint at 0.5 μM [2] [µL/min/mg] |
| --- | --- | --- | --- |
| CCc1ccn2cc(CCN3Cc4nccc(-c5ccncc5)c4C3=O)nc2c1 [compound 552, 6-[2-(7-Ethylimidazo[1,2-a]pyridin-2-yl)ethyl]-4-(4-pyridyl)-7H-pyrrolo[3,4-b]pyridin-5-one] | > 7.00 | < 100 | 100 to 220 |
| O=C1c2c(-c3ccncc3)ccnc2CN1CCc1cn2ccccc2n1 [Example 369, 6-(2-Imidazo[1,2-a]pyridin-2-yl-ethyl)-4-pyridin-4-yl-6,7-dihydro-pyrrolo[3,4-b]pyridin-5-one] | > 7.00 | < 100 | < 100 |
| CN1CCN(c2ccnc3c2C(=O)N(CCc2ccc4ccccc4n2)C3)CC1 [Example 138, 4-(4-Methyl-piperazin-1-yl)-6-(2-quinolin-2-yl-ethyl)-6,7-dihydro-pyrrolo[3,4-b]pyridin-5-one] | > 7.00 | < 100 | < 100 |
| O=C1Cc2ccc(-c3ccnc4c3C(=O)N(CCc3ccc5ccccc5n3)C4)cc2N1 [Example 165, 4-(2-oxo-2,3-dihydro-1H-indol-6-yl)-6-(2-quinolin-2-yl-ethyl)-6,7-dihydro-pyrrolo[3,4-b]pyridin-5-one] | > 7.00 | < 100 | < 100 |
| O=C1c2c(N3CCS(=O)(=O)CC3)ccnc2CN1CCc1ccc2ccccc2n1 [Example 137, 4-(1,1-Dioxo-thiomorpholin-4-yl)-6-(2-quinolin-2-yl-ethyl)-6,7-dihydro-pyrrolo[3,4-b]pyridin-5-one] | > 7.00 | < 100 | < 100 |
| O=C1c2cccc(OCc3cccnc3)c2C(=O)N1CCc1ccc2ccccc2n1 [Example 246, 4-(Pyridin-3-ylmethoxy)-2-(2-quinolin-2-yl-ethyl)-isoindole-1,3-dione] | > 7.00 | 100 to 220 | > 220 |
| O=C(O)C1CN(c2ccnc3c2C(=O)N(CCc2ccc4ccccc4n2)C3)C1 [compound 446, 1-[5-oxo-6-[2-(2-quinolyl)ethyl]-7H-pyrrolo[3,4-b]pyridin-4-yl]azetidine-3-carboxylic acid] | 6.70 to 7.00 | < 100 | < 100 |
| O=C1c2c(-c3ccncc3)cccc2C(F)(F)N1CCc1ccc2ccccc2n1 [Example 4, 3,3-Difluoro-7-pyridin-4-yl-2-(2-quinolin-2-yl-ethyl)-2,3-dihydro-isoindol-1-one] | > 7.00 | 100 to 220 | > 220 |
| O=C1c2cccc(-c3cc[nH]n3)c2CN1CCc1cn2ccccc2n1 [Example 314, 2-(2-Imidazo[1,2-a]pyridin-2-yl-ethyl)-4-(1H-pyrazol-3-yl)-2,3-dihydro-isoindol-1-one trifluoroacetate] | > 7.00 | < 100 | < 100 |
| Cn1c(CCN2Cc3cccc(N4CCS(=O)(=O)CC4)c3C2=O)nc2ccccc21 [Example 184, 7-(1,1-Dioxothiomorpholin-4-yl)-2-[2-(1-methyl-1H-benzoimidazol-2-yl)-ethyl]-2,3-dihydro-isoindol-1-one trifluoroacetate] | > 7.00 | 100 to 220 | < 100 |
| O=C1c2c(cccc2N2CCNCC2)CN1CCc1ccc2ccccc2n1 [Example 102, 7-piperazin-1-yl-2-(2-quinolin-2-yl-ethyl)-2,3-dihydro-isoindol-1-one] | 6.30 to 6.70 | < 100 | 100 to 220 |
| Cn1c(CCN2Cc3nccc(-c4ccncc4)c3C2=O)nc2ccccc21 [Example 367, 6-[2-(1-Methyl-1H-benzoimidazol-2-yl)-ethyl]-4-pyridin-4-yl-6,7-dihydro-pyrrolo[3,4-b]pyridin-5-one] | > 7.00 | < 100 | < 100 |
| Cn1cnc2ccc(-c3cccc4c3C(=O)N(CCc3ccc5ccccc5n3)C4)cc21 [Example 8, 7-(3-Methyl-3H-benzoimidazol-5-yl)-2-(2-quinolin-2-yl-ethyl)-2,3-dihydro-isoindol-1-one trifluoroacetate] | 6.30 to 6.70 | > 220 | 100 to 220 |
| Cc1ccc2c(c1)nc(CCN1Cc3nccc(-c4cccnc4)c3C1=O)n2C [compound 539, 6-[2-(1,5-Dimethylbenzimidazol-2-yl)ethyl]-4-(3-pyridyl)-7H-pyrrolo[3,4-b]pyridin-5-one] | > 7.00 | < 100 | < 100 |
| O=C1c2c(cccc2N2C[C@@H]3CCCNC[C@H]3C2)CN1CCc1ccc2ccccc2n1 [Example 317, 7-(3aS,8aR)-Octahydro-pyrrolo[3,4-c]azepin-2-yl-2-(2-quinolin-2-yl-ethyl)-2,3-dihydro-isoindol-1-one trifluoroacetate] | 6.30 to 6.70 | 100 to 220 | < 100 |
| Cc1occc1-c1ccnc2c1C(=O)N(CCc1cn3ccccc3n1)C2 [compound 524, 6-(2-Imidazo[1,2-a]pyridin-2-ylethyl)-4-(2-methyl-3-furyl)-7H-pyrrolo[3,4-b]pyridin-5-one] | 6.70 to 7.00 | 100 to 220 | > 220 |
| O=C1c2c(cccc2-c2ccncc2)CN1CCc1nc2ccccc2n1C(F)F [compound 450, 2-[2-(1-Difluoromethyl-1H-benzoimidazol-2-yl)-ethyl]-7-pyridin-4-yl-2,3-dihydro-isoindol-1-one trifluoroacetate] | 6.30 to 6.70 | > 220 | 100 to 220 |
| COc1ccc(-c2ccnn2C)c2c1CN(CCc1cn3ccccc3n1)C2=O [Example 373, 2-(2-Imidazo[1,2-a]pyridin-2-yl-ethyl)-4-methoxy-7-(2-methyl-2H-pyrazol-3-yl)-2,3-dihydro-isoindol-1-one] | > 7.00 | < 100 | < 100 |
| O=C1c2c(N3CCC(C(F)F)C3)ccnc2CN1CCc1cn2ccccc2n1 (stereo not drawn) [compound 386, 4-[3-(Difluoromethyl)pyrrolidin-1-yl]-6-(2-imidazo[1,2-a]pyridin-2-ylethyl)-7H-pyrrolo[3,4-b]pyridin-5-one] | > 7.00 | < 100 | 100 to 220 |

Other lines, results leading:

| pIC50 (PDE10A (human)) | microsomal CLint at 0.5 μM [1] [µL/min/mg] | microsomal CLint at 0.5 μM [2] [µL/min/mg] | SMILES |
| --- | --- | --- | --- |
| > 7.00 | 100 to 220 | > 220 | O=C1c2cccc(-c3cc[nH]n3)c2CN1CCc1ccc2ccccc2n1 [Example 200, 4-(1H-Pyrazol-3-yl)-2-(2-quinolin-2-yl-ethyl)-2,3-dihydro-isoindol-1-one] |
| 6.70 to 7.00 | < 100 | < 100 | Cc1cc(-c2ccnc3c2C(=O)N(CCc2ccc4ccccc4n2)C3)n(C)n1 [Example 334, 4-(2,5-Dimethyl-2H-pyrazol-3-yl)-6-(2-quinolin-2-yl-ethyl)-6,7-dihydro-pyrrolo[3,4-b]pyridin-5-one] |
| > 7.00 | 100 to 220 | > 220 | O=C1c2cccc(-c3cc[nH]n3)c2CN1CCc1nc2ccccc2s1 [compound 428, 2-[2-(1,3-Benzothiazol-2-yl)ethyl]-4-(1H-pyrazol-3-yl)isoindolin-1-one] |
| > 7.00 | < 100 | < 100 | O=C1c2c(N3CCOCC3)ccnc2CN1CCc1nc2ccccc2s1 [Example 377, 6-(2-Benzothiazol-2-yl-ethyl)-4-morpholin-4-yl-6,7-dihydro-pyrrolo[3,4-b]pyridin-5-one] |
| > 7.00 | < 100 | < 100 | O=C1c2c(-c3cncnc3)ccnc2CN1CCc1cn2ccccc2n1 [Example 256, 6-(2-Imidazo[1,2-a]pyridin-2-yl-ethyl)-4-pyrimidin-5-yl-6,7-dihydro-pyrrolo[3,4-b]pyridin-5-one] |
| > 7.00 | < 100 | < 100 | O=C1c2c(-c3cncnc3)ccnc2CN1CCc1ccc2ccccc2n1 [Example 166, 4-Pyrimidin-5-yl-6-(2-quinolin-2-yl-ethyl)-6,7-dihydro-pyrrolo[3,4-b]pyridin-5-one] |
| 6.70 to 7.00 | < 100 | < 100 | NCc1ccc(-c2cccc3c2C(=O)N(CCc2ccc4ccccc4n2)C3)cc1 [Example 193, 7-(4-Aminomethyl-phenyl)-2-(2-quinolin-2-yl-ethyl)-2,3-dihydro-isoindol-1-one] |
| > 7.00 | < 100 | < 100 | O=C1c2c(cccc2N2CC[S+]([O-])CC2)CN1CCc1ccc2ccccc2n1 [Example 135, 7-(1-oxo-thiomorpholin-4-yl)-2-(2-quinolin-2-yl-ethyl)-2,3-dihydro-isoindol-1-one] |
| > 7.00 | 100 to 220 | 100 to 220 | CCn1c(CCN2Cc3cccc(N4CCOCC4)c3C2=O)nc2ccccc21 [Example 278, 2-[2-(1-Ethyl-1H-benzoimidazol-2-yl)-ethyl]-7-morpholin-4-yl-2,3-dihydro-isoindol-1-one] |
| > 7.00 | < 100 | < 100 | COc1ccc(-c2ccnn2C)c2c1C(=O)N(CCc1cn3ccccc3n1)C2 [compound 464, 2-(2-Imidazo[1,2-a]pyridin-2-yl-ethyl)-7-methoxy-4-(2-methyl-2H-pyrazol-3-yl)-2,3-dihydro-isoindol-1-one trifluoroacetate] |
| > 7.00 | < 100 | > 220 | Cc1ccc2ccc(CCN3Cc4nccc(-c5ccncc5)c4C3=O)nc2c1 [compound 394, 6-[2-(7-Methyl-2-quinolyl)ethyl]-4-(4-pyridyl)-7H-pyrrolo[3,4-b]pyridin-5-one trifluoroacetate] |
